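Tested at 5 concentrations; 48 h exposure; 96-well plates; endpoints linearly interpolated, else capped at highest concentration. GI50 is the concentration that inhibits growth by half. TGI: total growth inhibition.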
How the values were obtained:
Assay in all cases: growth of human tumour cells (NCI), 48 h
786-0 renal = system: 786-0 renal
A498 renal = system: A498 renal
A549 NSCLC = system: A549 NSCLC
ACHN renal = system: ACHN renal
BT-549 breast = system: BT-549 breast
CAKI-1 renal = system: CAKI-1 renal
CCRF-CEM leukemia = system: CCRF-CEM leukemia
COLO 205 colon = system: COLO 205 colon
DU-145 prostate = system: DU-145 prostate
EKVX NSCLC = system: EKVX NSCLC
HCC-2998 colon = system: HCC-2998 colon
HCT-116 colon = system: HCT-116 colon
HCT-15 colon = system: HCT-15 colon
HL-60(TB) leukemia = system: HL-60(TB) leukemia
HOP-62 NSCLC = system: HOP-62 NSCLC
HOP-92 NSCLC = system: HOP-92 NSCLC
HS 578T breast = system: HS 578T breast
HT29 colon = system: HT29 colon
IGROV1 ovarian = system: IGROV1 ovarian
K-562 leukemia = system: K-562 leukemia
KM12 colon = system: KM12 colon
LOX IMVI melanoma = system: LOX IMVI melanoma
M14 melanoma = system: M14 melanoma
MALME-3M melanoma = system: MALME-3M melanoma
MCF7 breast = system: MCF7 breast
MDA-MB-231 breast = system: MDA-MB-231 breast
MDA-MB-435 = system: MDA-MB-435
MDA-MB-468 breast = system: MDA-MB-468 breast
MOLT-4 leukemia = system: MOLT-4 leukemia
NCI-H226 lung = system: NCI-H226 lung
NCI-H23 lung = system: NCI-H23 lung
NCI-H460 lung = system: NCI-H460 lung
NCI-H522 lung = system: NCI-H522 lung
NCI/ADR-RES ovarian = system: NCI/ADR-RES ovarian
OVCAR-3 ovarian = system: OVCAR-3 ovarian
OVCAR-4 ovarian = system: OVCAR-4 ovarian
OVCAR-5 ovarian = system: OVCAR-5 ovarian
OVCAR-8 ovarian = system: OVCAR-8 ovarian
PC-3 prostate = system: PC-3 prostate
RPMI-8226 leukemia = system: RPMI-8226 leukemia
RXF 393 renal = system: RXF 393 renal
SF-268 CNS = system: SF-268 CNS
SF-295 CNS = system: SF-295 CNS
SF-539 CNS = system: SF-539 CNS
SK-MEL-2 melanoma = system: SK-MEL-2 melanoma
SK-MEL-28 melanoma = system: SK-MEL-28 melanoma
SK-MEL-5 melanoma = system: SK-MEL-5 melanoma
SK-OV-3 ovarian = system: SK-OV-3 ovarian
SN12C renal = system: SN12C renal
SNB-19 CNS = system: SNB-19 CNS
SNB-75 CNS = system: SNB-75 CNS
SR leukemia = system: SR leukemia
SW-620 colon = system: SW-620 colon
T-47D breast = system: T-47D breast
TK-10 renal = system: TK-10 renal
U251 CNS = system: U251 CNS
UACC-257 melanoma = system: UACC-257 melanoma
UACC-62 melanoma = system: UACC-62 melanoma
UO-31 renal = system: UO-31 renal

## CC(C)(C)OC(=O)N1C/C(=C\c2ccc(F)cc2)C(=O)/C(=C/c2ccc(F)cc2)C1
786-0 renal
  GI50: 1.94 µM
  TGI: 3.98 µM
A498 renal
  GI50: 17.1 µM
  TGI: 34.6 µM
A549 NSCLC
  GI50: 6.72 µM
  TGI: 29 µM
ACHN renal
  GI50: 1.87 µM
  TGI: 3.68 µM
BT-549 breast
  GI50: 1.82 µM
  TGI: 3.73 µM
CAKI-1 renal
  GI50: 2.07 µM
  TGI: 5.5 µM
CCRF-CEM leukemia
  GI50: 1.81 µM
  TGI: > 100 µM
COLO 205 colon
  GI50: 3.49 µM
  TGI: 12.1 µM
DU-145 prostate
  GI50: 3.5 µM
  TGI: 13.7 µM
EKVX NSCLC
  GI50: 2.56 µM
  TGI: 6.61 µM
HCC-2998 colon
  GI50: 1.84 µM
  TGI: 3.26 µM
HCT-116 colon
  GI50: 0.355 µM
  TGI: 1.28 µM
HCT-15 colon
  GI50: 1.5 µM
  TGI: 3.22 µM
HL-60(TB) leukemia
  GI50: 2.88 µM
  TGI: > 100 µM
HOP-62 NSCLC
  GI50: 13.1 µM
  TGI: 26.9 µM
HOP-92 NSCLC
  GI50: 2.51 µM
  TGI: 9.66 µM
HS 578T breast
  GI50: 2.26 µM
  TGI: 7.68 µM
HT29 colon
  GI50: 1.91 µM
  TGI: 3.72 µM
IGROV1 ovarian
  GI50: 2.14 µM
  TGI: 4.82 µM
K-562 leukemia
  GI50: 0.643 µM
  TGI: > 100 µM
KM12 colon
  GI50: 1.89 µM
  TGI: 4.23 µM
LOX IMVI melanoma
  GI50: 1.28 µM
  TGI: 2.55 µM
M14 melanoma
  GI50: 2.02 µM
  TGI: 4.5 µM
MALME-3M melanoma
  GI50: 2.24 µM
  TGI: 5.15 µM
MCF7 breast
  GI50: 0.991 µM
  TGI: 2.46 µM
MDA-MB-231 breast
  GI50: 2.16 µM
  TGI: 5.27 µM
MDA-MB-435
  GI50: 1.73 µM
  TGI: 3.32 µM
MDA-MB-468 breast
  GI50: 1.85 µM
  TGI: 3.75 µM
MOLT-4 leukemia
  GI50: 3.5 µM
  TGI: > 100 µM
NCI-H226 lung
  GI50: 3.64 µM
  TGI: 14.8 µM
NCI-H23 lung
  GI50: 2.17 µM
  TGI: 5.3 µM
NCI-H460 lung
  GI50: 3.22 µM
  TGI: 10.7 µM
NCI-H522 lung
  GI50: 1.63 µM
  TGI: 3.17 µM
NCI/ADR-RES ovarian
  GI50: 1.89 µM
  TGI: 4.39 µM
OVCAR-3 ovarian
  GI50: 1.99 µM
  TGI: 4.46 µM
OVCAR-4 ovarian
  GI50: 3.22 µM
  TGI: 19.5 µM
OVCAR-5 ovarian
  GI50: 2.18 µM
  TGI: 5.59 µM
OVCAR-8 ovarian
  GI50: 1.83 µM
  TGI: 3.78 µM
PC-3 prostate
  GI50: 1.9 µM
  TGI: 6.41 µM
RPMI-8226 leukemia
  GI50: 0.379 µM
  TGI: 2.64 µM
RXF 393 renal
  GI50: 2.92 µM
  TGI: 8.29 µM
SF-268 CNS
  GI50: 3.02 µM
  TGI: 11.7 µM
SF-295 CNS
  GI50: 1.97 µM
  TGI: 3.98 µM
SF-539 CNS
  GI50: 1.94 µM
  TGI: 3.81 µM
SK-MEL-2 melanoma
  GI50: 2.65 µM
  TGI: 9.67 µM
SK-MEL-28 melanoma
  GI50: 2.17 µM
  TGI: 5.51 µM
SK-MEL-5 melanoma
  GI50: 1.71 µM
  TGI: 3.51 µM
SK-OV-3 ovarian
  GI50: 8.24 µM
  TGI: 21.9 µM
SN12C renal
  GI50: 1.82 µM
  TGI: 4.12 µM
SNB-19 CNS
  GI50: 2.65 µM
  TGI: 8.72 µM
SNB-75 CNS
  GI50: 2.53 µM
  TGI: 19.9 µM
SR leukemia
  GI50: 0.335 µM
  TGI: > 100 µM
SW-620 colon
  GI50: 0.455 µM
  TGI: 1.7 µM
T-47D breast
  GI50: 3.18 µM
  TGI: 15.9 µM
TK-10 renal
  GI50: 4.01 µM
  TGI: 16.4 µM
U251 CNS
  GI50: 1.44 µM
  TGI: 2.96 µM
UACC-257 melanoma
  GI50: 2.06 µM
  TGI: 5.19 µM
UACC-62 melanoma
  GI50: 1.78 µM
  TGI: 4.17 µM
UO-31 renal
  GI50: 1.77 µM
  TGI: 3.94 µM

Source: PubChem BioAssay (NCI)
